Experimental data published in the OPERA property sets (Mansouri et al. 2018).

Conditions: for log10 BCF / log10 biotransformation half-life (days): fish

Compound `CC(C)S(=O)(=O)n1c(N)nc2ccc(/C(=N/O)c3ccccc3)cc21` has a melting point of 198 °C.
In the case of `CCCCCCNC(=O)n1cc(F)c(=O)[nH]c1=O`, the melting point was 110 °C.
For `Fc1c(F)c(F)c(Cl)c(F)c1F`, the boiling point was 118 °C and the log10 vapour pressure (mmHg) was 1.25.
Work on `C[C@@H]1CC[C@@H](C)S1` yielded a boiling point of 142 °C and a melting point of -89 °C.
Compound `CNC(=O)C(C)SCCSP(=O)(OC)OC` (stereo not drawn) has a melting point of 43 °C.
`Cc1cc(C)nc(C)c1` gave a boiling point of 171 °C, a log10 vapour pressure (mmHg) of 0.298 and a melting point of -46 °C.
`CN1C(CCl)Nc2cc(Cl)c(S(N)(=O)=O)cc2S1(=O)=O` (stereo not drawn) gave a melting point of 225 °C.
`CC(Cc1ccc(C(C)(C)C)cc1)CN1CCCCC1` (stereo not drawn) gave a log10 vapour pressure (mmHg) of -3.89.
`CCCCCl` gave a boiling point of 78.6 °C, a log10 Henry constant (atm·m³/mol) of -1.78 and a log10 Koa of 2.72. The log10 vapour pressure (mmHg) was 2.01, the melting point was -123 °C and the ready biodegradability was “not readily biodegradable”. It also gave a log10 BCF of 1.23 and a log10 biotransformation half-life (days) of -0.45.
`CN(C)CC(=O)O` showed a melting point of 186 °C.
`ClCC1C(CCl)C2(Cl)C(Cl)=C(Cl)C1(Cl)C2(Cl)Cl` (stereo not drawn) showed a melting point of 105 °C.
`CCCOC(=O)CCCCC(=O)OCCC` gave a melting point of -15.7 °C.
`C#CC(O)(CC)CC` showed a boiling point of 138 °C.
With `O=Nc1c(O)ccc2ccccc12` the melting point was 110 °C.
Work on `COc1nccnc1CC(C)C` yielded a log10 Henry constant (atm·m³/mol) of -4.31.
In the case of `CNC(=O)ON=CC(C)(C)SC`, the log10 Koc (L/kg) was 1.5, the log10 vapour pressure (mmHg) was -4.46 and the melting point was 99 °C.
`C#CC(C)(C)NC(=O)c1cc(Cl)cc(Cl)c1` gave a log10 Koc (L/kg) of 2.31, a log10 vapour pressure (mmHg) of -6.36 and a melting point of 155 °C.
`COP(=S)(OC)SCn1nnc2ccccc2c1=O` gave a log10 Koc (L/kg) of 2.28, a log10 vapour pressure (mmHg) of -5.8 and a melting point of 73 °C. For the same compound, the ready biodegradability was “readily biodegradable”.
`CCCCN` showed a boiling point of 78 °C, a log10 Henry constant (atm·m³/mol) of -4.76 and a log10 Koa of 3.61. The log10 Koc (L/kg) was 1.88, the log10 vapour pressure (mmHg) was 1.97 and the melting point was -50 °C. The ready biodegradability was “readily biodegradable”.
`Clc1ccc(-c2ccc(Cl)c(Cl)c2)cc1Cl` showed a log10 Henry constant (atm·m³/mol) of -5.03, a log10 Koa of 9.7 and a log10 vapour pressure (mmHg) of -4.78. For the same compound, the log10 BCF was 4.62 and the log10 biotransformation half-life (days) was 1.35.
Work on `Fc1ccc(NC(=S)Nc2cc(Cl)cc(Cl)c2)cc1` yielded a melting point of 164 °C.
`Oc1ccc(O)c(Br)c1` showed a melting point of 112 °C.
For `CC(C)CCCC(C)N` (stereo not drawn), the boiling point was 155 °C.
`COCC(C)OC(C)=O` (stereo not drawn) showed a boiling point of 146 °C, a log10 Koc (L/kg) of 0.36 and a log10 vapour pressure (mmHg) of 0.593.
In the case of `CCC(C)I` (stereo not drawn), the boiling point was 120 °C, the log10 vapour pressure (mmHg) was 1.23 and the melting point was -104 °C.
`Cn1c(=O)on(-c2ccc(Cl)c(Cl)c2)c1=O` gave a log10 Koc (L/kg) of 3.48, a log10 vapour pressure (mmHg) of -6 and a melting point of 123 °C.
`N#CCCCl` showed a boiling point of 176 °C and a melting point of -51 °C.
Work on `Clc1ccc(CSC(Cn2cncn2)=Nc2ccc(Cl)cc2Cl)cc1` yielded a log10 vapour pressure (mmHg) of -9.2 and a melting point of 90 °C.
In the case of `CCCC(C)CC(C)C` (stereo not drawn), the boiling point was 133 °C and the log10 biodegradation half-life (days) was 0.778.
`COC(CBr)OC` gave a boiling point of 149 °C.
For `C=CC(C)O` (stereo not drawn), the ready biodegradability was “readily biodegradable”.
`CC[C@H]1CN2CCc3cc(OC)c(OC)cc3[C@@H]2C[C@@H]1C[C@H]1NCCc2cc(OC)c(OC)cc21` gave a melting point of 74 °C.
`FC(Br)Br` showed a boiling point of 64.9 °C and a melting point of -78 °C.
With `CCCCCCC(C(=O)OCC)C(=O)OCC` the boiling point was 269 °C.
In the case of `N#CCCOCCC#N`, the boiling point was 306 °C, the log10 vapour pressure (mmHg) was -3.76 and the melting point was -26.3 °C. The ready biodegradability was “readily biodegradable”.
`O=CCCCCC=O` gave a melting point of -8 °C.
In the case of `CC(=NO)C(C)=NO`, the melting point was 246 °C.
In the case of `CC1=Nc2ccc(Cl)cc2S(=O)(=O)N1`, the melting point was 330 °C.
`CCOCCO` gave a boiling point of 135 °C, a log10 Henry constant (atm·m³/mol) of -6.33 and a log10 vapour pressure (mmHg) of 0.725. The melting point was -70 °C and the ready biodegradability was “readily biodegradable”.
In the case of `COC(=O)Nc1ccc(Cl)c(Cl)c1`, the log10 Koc (L/kg) was 2.74.
For `O=C1NCNC1(c1ccccc1)c1ccccc1`, the melting point was 183 °C.
Work on `CC(C)CCC[C@@H](C)[C@H]1CC[C@H]2[C@@H]3CCC4=C[C@@H](O)CC[C@]4(C)[C@H]3CC[C@]12C` yielded a melting point of 132 °C.
In the case of `O=C(O)c1ccc2ccccc2c1`, the log10 vapour pressure (mmHg) was -5.18, the melting point was 186 °C and the ready biodegradability was “readily biodegradable”.
Work on `Cc1[nH]c(=O)n(C(C)C)c(=O)c1Br` yielded a log10 Koc (L/kg) of 2.11 and a melting point of 158 °C.
For `CN[C@@H](Cc1ccc(O)cc1)C(=O)O`, the melting point was 293 °C.
With `CCCC#CCCC` the boiling point was 132 °C, the log10 vapour pressure (mmHg) was 0.985 and the melting point was -101 °C.
For `O=C(OC(=O)C(F)(F)C(F)(F)C(F)(F)F)C(F)(F)C(F)(F)C(F)(F)F`, the boiling point was 106 °C and the melting point was -43 °C.
